Here are results for five molecules from patent US6756045B1, “Topically applied idebenone-containing agent with protective and regenerative effect” (priority 1999, dated 2004).

The subject of data set [1] is macrophage LDL oxidation systems. The data set can be described thus: macrophage LDL oxidation system, lipid hydroperoxides by HPLC chemiluminescence. The format is cell-based. As to conditions: for antioxidative effect in combination with tocopherol: combined with tocopherol, in the course of time, after 24 hours. The source says: In separate pre-tests, idebenone was used in the macrophage LDL oxidation systems as anti-oxidant by way of comparison to alpha-tocopherol, ascorbic acid, coenzyme Q-10 and glutathione. This system is suitable for the simulation of cell-promoted oxidation of lipids induced by lipoxygenase, such as for example occurs due to UV radiation. To determine the antioxidative effect of the individual substances, the amount of primary degradation products of lipid peroxidation, the lipid hydroperoxides, occurring in the course of time after 8 or 24 hours was determined by means of an HPLC chemiluminescence method (E. Wieland et al., Fresenius J. Anal. Chem., 343, 62-63 (1992)). […] The values given in the following tables relate to nmoles of measured lipid hydroperoxides per mg of LDL protein.

For data set [2] the following is noted: oral administration; cited from earlier work.
A further data set has as its system tissue. The conditions noted are these: in the tissue under pro-oxidative conditions; cited from earlier work.
[3] abbreviates: oxidation system A (Mk + LDL), 10 μmoles/litre antioxidant, 8 hours.
Where [4] appears, read: oxidation system A (Mk + LDL), 10 μmoles/litre antioxidant, 24 hours.
The mark [5] stands for this setting: oxidation system B (Mk + LDL + 100 μmoles/liter α-tocopherol), 10 μmoles/litre further antioxidant, 8 hours.
[6] abbreviates: oxidation system B (Mk + LDL + 100 μmoles/liter α-tocopherol), 10 μmoles/litre further antioxidant, 24 hours.
The mark [7] stands for this setting: oxidation system A (Mk + LDL), 50 μmoles/litre antioxidant, 8 hours.
[8] abbreviates: oxidation system A (Mk + LDL), 50 μmoles/litre antioxidant, 24 hours.
Where [9] appears, read: oxidation system B (Mk + LDL + 100 μmoles/liter α-tocopherol), 50 μmoles/litre further antioxidant, 8 hours.
The mark [10] stands for this setting: oxidation system B (Mk + LDL + 100 μmoles/liter α-tocopherol), 50 μmoles/litre further antioxidant, 24 hours.

With `COC1=C(OC)C(=O)C(CCCCCCCCCCO)=C(C)C1=O` [idebenone, 6-(10-hydroxydecyl)-2,3-dimethoxy-5-methyl-1,4-benzoquinone], the “antioxidative effect in combination with tocopherol” value in data set [1] was “reliably intercept the pro-oxidative effect of tocopherol oxidation products”. For the same molecule, the “antioxidative effect compared to ascorbic acid, alpha-tocopherol and glutathione” value in data set [1] (idebenone 10 μmoles/liter vs ascorbic acid 50, alpha-tocopherol 100, glutathione 50 μmoles/liter) was “clearly stronger antioxidative effect”. For the same molecule, the lipid hydroperoxides in data set [1] (setting [3]) was 0 nmoles per mg of LDL protein; in data set [1] (setting [4]), 0 nmoles per mg of LDL protein; in data set [1] (setting [5]) it was 1.9 nmoles per mg of LDL protein; in data set [1] (setting [6]), 2.6 nmoles per mg of LDL protein. Moreover, in data set [2], the toxic effects result was “no toxic effects”. The “protection against loss of alpha-tocopherol and coenzyme Q-10” value with tissue was “protection against the loss of alpha-tocopherol and coenzyme Q-10”.

In the case of `COC1=C(OC)C(=O)C(C/C=C(\C)CC/C=C(\C)CC/C=C(\C)CC/C=C(\C)CC/C=C(\C)CC/C=C(\C)CC/C=C(\C)CC/C=C(\C)CC/C=C(\C)CCC=C(C)C)=C(C)C1=O` [coenzyme Q-10], the lipid hydroperoxides in data set [1] (setting [3]) is on record as 69 nmoles per mg of LDL protein; in data set [1] (setting [4]), 115.8 nmoles per mg of LDL protein; in data set [1] (setting [5]), 26.8 nmoles per mg of LDL protein; in data set [1] (setting [6]), 143.7 nmoles per mg of LDL protein.

In the case of `Cc1c(C)c2c(c(C)c1O)CC[C@@](C)(CCC[C@H](C)CCC[C@H](C)CCCC(C)C)O2` [α-tocopherol, alpha-tocopherol], the lipid hydroperoxides in data set [1] (oxidation system A (Mk + LDL), 100 μmoles/litre antioxidant, 8 hours) is 32.8 nmoles per mg of LDL protein; in data set [1] (oxidation system A (Mk + LDL), 100 μmoles/litre antioxidant, 24 hours) it was 198.0 nmoles per mg of LDL protein.

With `O=C1O[C@H]([C@@H](O)CO)C(O)=C1O` [ascorbic acid], in data set [1], the “antioxidative effect in combination with tocopherol” value is listed as “significantly lower antioxidative effect”. Also, the lipid hydroperoxides in data set [1] (setting [7]) was 0 nmoles per mg of LDL protein; in data set [1] (setting [8]), 1.7 nmoles per mg of LDL protein; in data set [1] (setting [9]) it was 1.7 nmoles per mg of LDL protein; in data set [1] (setting [10]), 25.3 nmoles per mg of LDL protein.

Regarding `N[C@@H](CCC(=O)N[C@@H](CS)C(=O)NCC(=O)O)C(=O)O` [glutathione], the lipid hydroperoxides in data set [1] (setting [7]) was 51.7 nmoles per mg of LDL protein; in data set [1] (setting [8]) it was 119.0 nmoles per mg of LDL protein; in data set [1] (setting [9]), 23.3 nmoles per mg of LDL protein; in data set [1] (setting [10]) it was 129.8 nmoles per mg of LDL protein.
